{"source": "patent US20160074338A1", "about": "“FOOD COMPOSITION FOR PREVENTING OBESITY, PHARMACEUTICAL COMPOSITION FOR TREATING OBESITY, AND ANIMAL MEDICINE FOR TREATING OBESITY, CONTAINING GINGERNONE A” (SNU R&DB Foundation, priority 2011, published 2016)", "assay_type_in_all_cases": "cell-based", "key": {"3T3-L1 cells [1]": {"tested_on": "3T3-L1 cells", "assay": "Oil red O staining of fat accumulation in MDI-differentiated 3T3-L1 cells", "conditions": "10, 20 and 40 μM, 6 days, dependent on concentration", "procedure": "In Experimental Example 3, to analyze the suppressive effects of gingerenone A on fat accumulation, oil red 0 staining was performed after inducing differentiation of the pre-adipocytes (K. Tobe et al., FEBS Lett, 215(2):345-9, 1987).\nThe 3T3-L1 cells (ATCC, Gaithersburg, Md.), representing pre-adipocytes, were plated into 24-well plates. The plated 3T3-L1 cell line was cultured in DMEM (Dulbecco-modified Eagle medium, WELGENE) with 10% FBS (fetal bovine serum) and 10 ml/L of antibiotic-antimycotic agent at 37° C. in a 5% CO2 incubator (MCO-15AC, SANYO E&E, Europe) until the cells reached 100% confluence.\nWhen the 3T3-L1 cells reached 100% confluence, the cells were further cultured for 2 days in DMEM medium, in which MDI was added, with 10 ml/L of antibiotic-antimycotic agent and 10% fetal bovine serum (FBS). The media was replaced with DMEM containing 10 ml/L of insulin, 10% FBS and 10 ml/L of antibiotic-antimycotic agent for another 2 days. Thereafter, the media was changed to DMEM medium only comprising 10 ml/L of antibiotic-antimycotic agent and 10% FBS. […]\nWhen 3T3-L1 cells were differentiated in the presence of MDI, gingerenone A was added at concentrations of 10, 20 and 40 μM to the cell culture media every third day from the day of MDI addition. […] The concentration was measured at a wavelength of 515 nm using an absorbance reader."}, "PPARγ": {"tested_on": "PPARγ", "assay": "Western blotting of PPARγ protein expression in differentiating 3T3-L1 cells", "conditions": "MDI-differentiated 3T3-L1 cells", "procedure": "(§1) In Experimental Example 4, it was confirmed by Western blotting that gingerenone A affects important transcriptional factors, C/EBPα and PPARγ, and FAS protein expressed by a transcriptional factor thereof, expressed upon fat cell differentiation (B. L. Upham et al., Carcinogenesis. 18:37-42, 1997).\nPost-confluent 3T3-L1 cells were cultured in DMEM supplemented with MDI, 10% FBS and 10 ml/L of antibiotic-antimycotic agent. In this media, we additionally treated with or without gingerenone A (10, 20 and 40 μM) for 2 days. For the next 2 to 4 days, the cells were further cultured. Here, the culture media was prepared by adding gingerenone A at concentrations of 10, 20 and 40 μM to DMEM media comprising insulin, 10% FBS and 1% antibiotic-antimycotic agent. For the next 4 to 6 days, the cells were further cultured in media comprising 10% FBS, 1% antibiotic-antimycotic agent and gingerenone A. Here, gingerenone A was added at concentrations of 10, 20 and 40 μM to the DMEM media. To extract protein from the cultured cells, after washing two times with cold PBS (phosphate buffered saline), the cells were lysed with a protein extraction solution. […] The protein content of the supernatants was determined using a DC assay kit (Bio-Rad Corp., Richmond, Calif., USA). […]"}, "3T3-L1 cells [2]": {"tested_on": "3T3-L1 cells", "assay": "MTT analysis of viability of 3T3-L1 cells", "procedure": "In Experimental Example 2, in order to measure the toxicity of 3T3-L1 cells in the presence of varying concentrations of gingerenone A, MTT3-(4,5-Dimethylthiazol-2-yl)-2,5diphenyltetrazolium bromide) analysis was conducted.\nFirst, after plating 3T3-L1 cells into 96 well plates, the cells were cultured until the 3T3-L1 cells became confluent. Thereafter, the 3T3-L1 cells were treated with gingerenone A at concentrations of 10, 20 and 40 μM. After culturing for 24 and 48 hours, MTT was added to the cultured cells to a concentration of 0.5 mg/ml. The treated cells were cultured for 4 hours at 37° C. in a 5% CO2 incubator. Thereafter, the media was removed and 200 μl of DMSO (dimethylsulfoxide) was added to measure absorbance at a wavelength of 570 nm using an absorbance reader (Versa Max, Molecular Device, California, USA). Cell viability was determined as a percentage with respect to a control treated with only MDI (0.5 mM of isobutyl-methylxanthine, 1 μM of dexamethasone and 10 μg/ml of insulin)."}, "[3]": {"tested_on": "FAS (fatty acid synthase)", "assay": "Western blotting of FAS protein expression in differentiating 3T3-L1 cells", "conditions": "MDI-differentiated 3T3-L1 cells; for FAS expression level: 40 μM, FIG. 5 comparison", "procedure": "as §1\n(§2) Post-confluent 3T3-L1 cells were cultured in DMEM supplemented with MDI, 10% FBS and 10 ml/L of antibiotic-antimycotic agent. In this media, we additionally treated with or without gingerenone A (10, 20 and 40 μM) for 2 days. For the next 2 to 4 days, the cells were further cultured. Here, the culture media was prepared by adding gingerenone A at concentrations of 10, 20 and 40 μM to DMEM media comprising insulin, 10% FBS and 1% antibiotic-antimycotic agent. For the next 4 to 6 days, the cells were further cultured in media comprising 10% FBS, 1% antibiotic-antimycotic agent and gingerenone A. Here, gingerenone A was added at concentrations of 10, 20 and 40 μM to the DMEM media. To extract protein from the cultured cells, after washing two times with cold PBS (phosphate buffered saline), the cells were lysed with a protein extraction solution. The protein extraction solution was RIPA buffer (50 mM, Tris pH 8.0, 150 mM NaCl, 1% NP-40, 5 mM EDTA and 1 mM PMSF) comprising 0.5% protease inhibitor (SIGMA-ALDRICH) and 0.5% phosphatase inhibitor (250 mM sodium fluoride, 5 mM sodium orthovanadate, 50 mM sodium pyrophosphate and 50 mM glycerophosphate). The cell lysates were centrifuged at 4° C. for 20 minutes at a rate of 12000 rpm. Supernatant formed by centrifugation was transferred to new 1.5 mL Eppendorf tubes. The protein content of the supernatants was determined using a DC assay kit (Bio-Rad Corp., Richmond, Calif., USA). The DC assay kit uses BSA (bovine serum albumin) as a standard solution. After mixing 20 to 50 μg of the protein with a sample buffer comprising bromophenol blue and denaturing the protein at 100° C. for 5 minutes, the denatured proteins were separated on a 12% SDS-polyacrylamide gel. […]"}, "C/EBPα": {"tested_on": "C/EBPα", "assay": "Western blotting of C/EBPα protein expression in differentiating 3T3-L1 cells", "conditions": "MDI-differentiated 3T3-L1 cells; for C/EBPα expression level: 40 μM, FIG. 5 comparison", "procedure": "as §1, §2"}}, "data": [{"smiles": "COc1cc(CC/C=C/C(=O)CCc2ccc(O)c(OC)c2)ccc1O", "note": "[gingerenone A]", "values": [{"measurement": "cellular fat content (oil red O staining)", "setting": "3T3-L1 cells [1]", "value": "decreased"}, {"measurement": "PPARγ expression level", "setting": "PPARγ; 40 μM, FIG. 5 comparison", "value": "considerably reduced"}, {"measurement": "PPARγ protein expression level", "setting": "PPARγ; 10, 20 and 40 μM, FIG. 4", "value": "reduced"}, {"measurement": "cytotoxicity (viability of 3T3-L1 cells)", "setting": "3T3-L1 cells [2]; 40 μM, 24 and 48 hours after treatment", "value": "not observed"}, {"measurement": "cytotoxicity (MTT analysis)", "setting": "3T3-L1 cells [2]; 3T3-L1 pre-adipocytes treated with 10, 20 and 40 μM", "value": "not observed"}, {"measurement": "FAS expression level", "setting": "[3]", "value": "considerably reduced"}, {"measurement": "FAS protein expression level", "setting": "[3]; 10, 20 and 40 μM, FIG. 4", "value": "reduced"}, {"measurement": "C/EBPα expression level", "setting": "C/EBPα", "value": "considerably reduced"}, {"measurement": "C/EBPα protein expression level", "setting": "C/EBPα; 10, 20 and 40 μM, FIG. 4", "value": "reduced"}]}, {"smiles": "CCCCC[C@H](O)CC(=O)CCc1ccc(O)c(OC)c1", "note": "[gingerol, reference compound]", "values": [{"measurement": "FAS expression level", "setting": "[3]", "value": "slightly reduced"}, {"measurement": "C/EBPα expression level", "setting": "C/EBPα", "value": "slightly reduced"}]}]}
